In patent US9815839B2, “N-(1-(substituted-phenyl)ethyl)-9H-purin-6-amines as PI3K inhibitors” (Incyte Corporation, priority 2010, dated 2017):
Counter-ions that a name gives are not always drawn.

What follows are compounds tested against T1, PI3Kδ (p110δ/p85α) (Homo sapiens, UniProt O00329) (assay: PI3Kδ scintillation proximity assay). Conditions: 20 μM ATP, 4 nM PI3Kδ.
T1 construct: purchased Millipore (Bedford, Mass.)
Assay type: biochemical
Text: Example A: PI3Kδ Scintillation Proximity Assay
Materials: [γ-^33P]ATP (10 mCi/mL) was purchased from Perkin-Elmer (Waltham, Mass.). Lipid kinase substrate, D-myo-Phosphatidylinositol 4,5-bisphosphate (PtdIns(4,5)P2)D (+)-sn-1,2-di-O-octanoylglyceryl, 3-O-phospho linked (PIP2), CAS 204858-53-7, was purchased from Echelon Biosciences (Salt Lake City, Utah). PI3Kδ (p110δ/p85α) was purchased from Millipore (Bedford, Mass.). ATP, MgCl2, DTT, EDTA, MOPS and CHAPS were purchased from Sigma-Aldrich (St. Louis, Mo.). Wheat Germ Agglutinin (WGA) YSi SPA Scintillation Beads was purchased from GE healthcare life sciences (Piscataway, N.J.).
The kinase reaction was conducted in polystyrene 384-well matrix white plate from Thermo Fisher Scientific in a final volume of 25 μL. Inhibitors were first diluted serially in DMSO and added to the plate wells before the addition of other reaction components. The final concentration of DMSO in the assay was 0.5%. The PI3K assays were carried out at room temperature in 20 mM MOPS, pH 6.7, 10 mM MgCl2, 5 mM DTT and CHAPS 0.03%. Reactions were initiated by the addition of ATP, the final reaction mixture consisted of 20 μM PIP2,20 μM ATP, 0.2 μCi [γ-^33P] ATP, 4 nM PI3Kδ. Reactions were incubated for 210 minutes and terminated by the addition of 40 μL SPA beads suspended in quench buffer: 150 mM potassium phosphate pH 8.0, 20% glycerol. 25 mM EDTA, 400 µM ATP. The final concentration of SPA beads is 1.0 mg/mL. After the plate sealing, plates were shaken overnight at room temperature and centrifuged at 1800 rpm for 10 minutes, the radioactivity of the product was determined by scintillation counting on Topcount (Perkin-Elmer). IC50 determination was performed by fitting the curve of percent control activity versus the log of the inhibitor concentration using the GraphPad Prism 3.0 software.

T1 sequence (O00329 whole entry, species assumed): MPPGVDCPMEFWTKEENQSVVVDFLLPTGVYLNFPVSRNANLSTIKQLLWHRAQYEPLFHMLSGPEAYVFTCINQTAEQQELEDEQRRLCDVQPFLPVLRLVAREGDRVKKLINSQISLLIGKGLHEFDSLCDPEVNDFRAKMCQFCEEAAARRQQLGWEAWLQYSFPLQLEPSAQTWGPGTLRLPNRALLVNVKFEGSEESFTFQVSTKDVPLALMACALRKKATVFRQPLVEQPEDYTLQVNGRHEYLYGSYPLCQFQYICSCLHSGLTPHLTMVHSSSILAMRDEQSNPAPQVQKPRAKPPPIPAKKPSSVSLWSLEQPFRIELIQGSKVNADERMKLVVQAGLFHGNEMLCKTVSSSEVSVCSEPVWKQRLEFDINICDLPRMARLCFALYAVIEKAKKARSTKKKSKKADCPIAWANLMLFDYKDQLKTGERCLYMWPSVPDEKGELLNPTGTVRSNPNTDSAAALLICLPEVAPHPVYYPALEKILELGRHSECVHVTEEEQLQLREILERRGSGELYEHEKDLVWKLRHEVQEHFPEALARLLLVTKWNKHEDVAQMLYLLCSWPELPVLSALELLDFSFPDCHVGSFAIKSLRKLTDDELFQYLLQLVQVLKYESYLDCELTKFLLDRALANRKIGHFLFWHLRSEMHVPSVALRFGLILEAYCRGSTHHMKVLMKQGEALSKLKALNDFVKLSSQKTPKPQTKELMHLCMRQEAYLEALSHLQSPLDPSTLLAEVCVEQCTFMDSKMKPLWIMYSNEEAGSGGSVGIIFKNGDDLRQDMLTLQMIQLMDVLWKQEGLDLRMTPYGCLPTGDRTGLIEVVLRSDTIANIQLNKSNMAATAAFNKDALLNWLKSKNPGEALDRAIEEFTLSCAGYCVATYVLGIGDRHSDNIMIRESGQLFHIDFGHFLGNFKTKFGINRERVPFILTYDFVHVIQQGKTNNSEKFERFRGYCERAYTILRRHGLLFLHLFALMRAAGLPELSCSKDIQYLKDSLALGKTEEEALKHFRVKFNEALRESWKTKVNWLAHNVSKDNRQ
T1 sequence (P27986 whole entry partner, species assumed): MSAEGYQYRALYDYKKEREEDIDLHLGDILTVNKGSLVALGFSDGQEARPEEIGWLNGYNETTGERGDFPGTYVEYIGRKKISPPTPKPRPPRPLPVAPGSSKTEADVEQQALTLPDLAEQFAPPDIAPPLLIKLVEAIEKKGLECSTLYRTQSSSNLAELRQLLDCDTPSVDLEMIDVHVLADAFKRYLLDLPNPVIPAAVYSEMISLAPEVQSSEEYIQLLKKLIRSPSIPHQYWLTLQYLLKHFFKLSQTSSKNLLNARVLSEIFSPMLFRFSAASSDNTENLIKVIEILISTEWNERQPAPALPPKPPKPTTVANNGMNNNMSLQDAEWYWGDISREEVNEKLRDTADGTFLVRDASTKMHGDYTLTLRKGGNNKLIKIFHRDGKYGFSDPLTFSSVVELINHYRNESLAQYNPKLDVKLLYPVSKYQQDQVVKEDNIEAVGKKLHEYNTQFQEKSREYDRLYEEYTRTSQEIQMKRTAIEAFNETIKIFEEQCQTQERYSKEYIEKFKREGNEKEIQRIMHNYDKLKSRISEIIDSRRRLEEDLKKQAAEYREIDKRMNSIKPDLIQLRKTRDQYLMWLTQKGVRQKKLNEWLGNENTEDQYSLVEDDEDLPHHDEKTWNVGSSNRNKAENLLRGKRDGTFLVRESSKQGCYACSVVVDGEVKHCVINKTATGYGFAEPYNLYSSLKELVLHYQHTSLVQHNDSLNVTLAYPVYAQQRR

**Q.** `COc1c(C(C)Nc2ncnc3[nH]cnc23)cc(Cl)c(C)c1-c1ccc(C(=O)N(C)C)c(F)c1` (stereo not shown) [Example 65, 3′-chloro-3-fluoro-6′-methoxy-N,N,2′-trimethyl-5′-[1-(9H-purin-6-ylamino)ethyl]biphenyl-4-carboxamide] was tested. Which IC50 did it give?
**A.** < 50 nM

**Q.** Which IC50 does the source give for `COc1c(C(C)Nc2ncnc3[nH]cnc23)cc(Cl)c(C)c1-c1ccc(F)c(C(N)=O)c1` (stereo not shown) [Example 61, 3′-Chloro-4-fluoro-6′-methoxy-2′-methyl-5′-[1-(9H-purin-6-ylamino)ethyl]biphenyl-3-carboxamide] here?
**A.** < 50 nM

**Q.** For `COc1c(C(C)Nc2ncnc3[nH]cnc23)cc(Cl)c(C)c1-c1ccc(Cl)cc1` (stereo not shown) [Example 99, N-[1-(4′,5-dichloro-2-methoxy-6-methylbiphenyl-3-yl)ethyl]-9H-purin-6-amine], which IC50 is on record?
**A.** 250 to 500 nM

**Q.** Which IC50 does the source give for `CCOc1c(C(C)Nc2ncnc3[nH]cnc23)cc(C)c(C#N)c1-c1cncc(S(C)(=O)=O)c1` (stereo not shown) [Example 186, 3-ethoxy-6-methyl-2-[5-(methylsulfonyl)pyridin-3-yl]-4-[1-(9H-purin-6-ylamino)ethyl]benzonitrile bis(2,2,2-trifluoroacetate)] here?
**A.** < 50 nM

**Q.** How did the IC50 turn out when `COc1c(C(C)Nc2ncnc3[nH]cnc23)cc(Cl)c(C)c1-c1cncc(C#N)c1` (stereo not shown) [Example 114, 5-{3-chloro-6-methoxy-2-methyl-5-[1-(9H-purin-6-ylamino)ethyl]phenyl}nicotinonitrile] was run?
**A.** < 50 nM

**Q.** How did the IC50 turn out when `COc1c(C(C)Nc2ncnc3[nH]cnc23)cc(Cl)c(Cl)c1C1CN(C2CCC2)C1` (stereo not shown) [Example 209, N-{1-[4,5-Dichloro-3-(1-cyclobutylazetidin-3-yl)-2-methoxyphenyl]ethyl}-9H-purin-6-amine bistrifluoroacetate] was run?
**A.** < 50 nM

**Q.** `COc1ccc(-c2cc(Cl)cc(C(C)Nc3ncnc4[nH]cnc34)c2OC)cn1` (stereo not shown) [Example 148, N-{1-[5-chloro-2-methoxy-3-(6-methoxypyridin-3-yl)phenyl]ethyl}-9H-purin-6-amine] was tested. Which IC50 did it give?
**A.** 50 to 100 nM

**Q.** Which IC50 does the source give for `COc1c(C(C)Nc2ncnc3[nH]cnc23)cc(Cl)c(C)c1-c1cccc(NC(C)=O)c1` (stereo not shown) [Example 104, N-{3′-chloro-6′-methoxy-2′-methyl-5′-[1-(9H-purin-6-ylamino)ethyl]biphenyl-3-yl}acetamide] here?
**A.** < 50 nM

**Q.** With `CC(=O)Nc1ccc(-c2c(C)c(Cl)cc(C(C)Nc3ncnc4[nH]cnc34)c2OCCN2CCOCC2)cn1` (stereo not shown) [Example 158, N-(5-{3-chloro-2-methyl-6-(2-morpholin-4-ylethoxy)-5-[1-(9H-purin-6-yl-amino)ethyl]-phenyl}-pyridin-2-yl)acetamide] as the compound, how does the IC50 read?
**A.** < 50 nM

**Q.** For `COc1c(C(C)Nc2ncnc3[nH]cnc23)cc(Cl)c(C)c1-c1ccc(C#N)nc1` (stereo not shown) [Example 58, 5-{3-chloro-6-methoxy-2-methyl-5-[1-(9H-purin-6-ylamino)ethyl]phenyl}pyridine-2-carbonitrile], which IC50 is on record?
**A.** 50 to 100 nM

**Q.** `COc1c(C(C)Nc2ncnc3[nH]cnc23)cc(Cl)c(C)c1C1CN(C)C1` (stereo not shown) [Example 171, N-{1-[5-Chloro-2-methoxy-4-methyl-3-(1-methylazetidin-3-yl)phenyl]ethyl}-9H-purin-6-amine bis(trifluoroacetate)] was tested. Which IC50 did it give?
**A.** < 50 nM

**Q.** With `COc1c(C(C)Nc2ncnc3[nH]cnc23)cc(Cl)c(C)c1C1CN(S(C)(=O)=O)C1` (stereo not shown) [Example 169, N-(1-{5-Chloro-2-methoxy-4-methyl-3-[1-(methylsulfonyl)azetidin-3-yl]phenyl}ethyl)-9H-purin-6-amine trifluoroacetate] as the compound, how does the IC50 read?
**A.** < 50 nM

**Q.** For `COc1c(C(C)Nc2ncnc3[nH]cnc23)cc(Cl)c(C)c1C1CNC(=O)C1` (single isomer, unassigned) [Example 192, 4-{3-chloro-6-methoxy-2-methyl-5-[1-(9H-purin-6-ylamino)ethyl]phenyl}pyrrolidin-2-one], which IC50 is on record?
**A.** < 50 nM

**Q.** For `CNC(=O)N1CC(c2c(C)c(Cl)cc(C(C)Nc3ncnc4[nH]cnc34)c2OC)C1` (stereo not shown) [Example 168, 3-{3-Chloro-6-methoxy-2-methyl-5-[1-(9H-purin-6-ylamino)ethyl]phenyl}-N-methylazetidine-1-carboxamide trifluoroacetate], which IC50 is on record?
**A.** < 50 nM

**Q.** `COc1ncc(-c2c(C)c(Cl)cc(C(C)Nc3ncnc4[nH]cnc34)c2OCCN2CCOCC2)cn1` (stereo not shown) [Example 161, N-{1-[5-chloro-3-(2-methoxy-pyrimidin-5-yl)-4-methyl-2-(2-morpholin-4-yl-ethoxy)-phenyl]-ethyl}-9H-purin-6-amine] was tested. Which IC50 did it give?
**A.** < 50 nM

**Q.** How did the IC50 turn out when `COc1c(C(C)Nc2ncnc3[nH]cnc23)cc(Cl)c(Cl)c1C1CN(CC(F)F)C1` (stereo not shown) [Example 210, N-(1-{4,5-Dichloro-3-[1-(2,2-difluoroethyl)azetidin-3-yl]-2-methoxyphenyl}ethyl)-9H-purin-6-amine bis(trifluoroacetate)] was run?
**A.** < 50 nM

**Q.** How did the IC50 turn out when `CCC(Nc1ncnc2[nH]cnc12)c1cc(Cl)c(C)c(-c2cncc(S(C)(=O)=O)c2)c1OC` (stereo not shown) [Example 182, N-(1-{5-chloro-2-methoxy-4-methyl-3-[5-(methylsulfonyl)pyridin-3-yl]phenyl}propyl)-9H-purin-6-amine bis(2,2,2-trifluoroacetate)] was run?
**A.** < 50 nM

**Q.** How did the IC50 turn out when `Cc1c(Cl)cc(C(C)Nc2ncnc3[nH]cnc23)c(OCCN2CCOCC2)c1-c1cncc(C(=O)N2CCOCC2)c1` (stereo not shown) [Example 155, N-{1-[5-chloro-4-methyl-3-[5-(morpholin-4-ylcarbonyl)-pyridin-3-yl]-2-(2-morpholin-4-ylethoxy)-phenyl]-ethyl}-9H-purin-6-amine] was run?
**A.** < 50 nM

**Q.** How did the IC50 turn out when `CC(Nc1ncnc2[nH]cnc12)c1cc(Cl)cc(-c2ccncc2)c1-c1cc(F)cc(F)c1` (stereo not shown) [Example 131, N-[1-(4-chloro-3′,5′-difluoro-6-pyridin-4-ylbiphenyl-2-yl)ethyl]-9H-purin-6-amine] was run?
**A.** < 50 nM

**Q.** For `COc1c(-c2ccc(S(C)(=O)=O)cc2)cc(Cl)cc1C(C)Nc1ncnc2[nH]cnc12` (stereo not shown) [Example 142, N-{1-[5-chloro-2-methoxy-4′-(methylsulfonyl)-biphenyl-3-yl]ethyl}-9H-purin-6-amine], which IC50 is on record?
**A.** 50 to 100 nM

**Q.** For `CC(Nc1ncnc2[nH]cnc12)c1cc(Cl)cc(-c2cc(F)nc(F)c2)c1-c1cc(F)cc(F)c1` (stereo not shown) [Example 133, N-{1-[4-chloro-6-(2,6-difluoropyridin-4-yl)-3′,5′-difluorobiphenyl-2-yl]ethyl}-9H-purin-6-amine], which IC50 is on record?
**A.** 50 to 100 nM

**Q.** For `Cc1c(Cl)cc(C(C)Nc2ncnc3[nH]cnc23)c(OCCN2CCOCC2)c1-c1cncc(F)c1` (stereo not shown) [Example 162, N-{1-[5-chloro-3-(5-fluoro-pyridin-3-yl)-4-methyl-2-(2-mor-pholin-4-ylethoxy)-phenyl]-ethyl}-9H-purin-6-amine], which IC50 is on record?
**A.** < 50 nM

**Q.** For `Cc1c(Cl)cc(C(C)Nc2ncnc3[nH]cnc23)c(OCCN2CCOCC2)c1-c1cc(F)cc(C(N)=O)c1` (stereo not shown) [Example 159, 3′-chloro-5-fluoro-2′-methyl-6′-(2-morpholin-4-ylethoxy)-5′-[1-(9H-purin-6-yl-amino)ethyl]-biphenyl-3-carboxamide], which IC50 is on record?
**A.** < 50 nM

**Q.** How did the IC50 turn out when `COc1cccc(-c2c(C)c(Cl)cc(C(C)Nc3ncnc4[nH]cnc34)c2OCCN2CCOCC2)c1` (stereo not shown) [Example 150, N-{1-[5-chloro-3′-methoxy-6-methyl-2-(2-mor-pholin-4-ylethoxy)-biphenyl-3-yl]ethyl}-9H-purin-6-amine] was run?
**A.** < 50 nM

**Q.** For `COc1c(C(C)Nc2ncnc3[nH]cnc23)cc(F)c(C)c1-c1ccc(C(=O)NC2CC2)cc1` (stereo not shown) [Example 120, N-cyclopropyl-3′-fluoro-6′-methoxy-2′-methyl-5′-[1-(9H-purin-6-ylamino)ethyl]biphenyl-4-carboxamide], which IC50 is on record?
**A.** 50 to 100 nM
